Measured values from US10640497B2, “Microbiocidal oxadiazole derivatives” (SYNGENTA PARTICIPATIONS AG, priority 2015, dated 2020).

What was measured:
[1] = tested on: Glomerella lagenarium (Colletotrichum lagenarium); assay: Fungicidal activity against Glomerella lagenarium (Colletotrichum lagenarium), liquid culture, cucumber, preventative (anthracnose); type: cell-based; conditions: Colletotrichum orbiculare, liquid culture (PDB), growth inhibition measured photometrically 3-4 days after application, compared to untreated control
Method: Mycelia fragments or conidia suspensions of a fungus, prepared either freshly from liquid cultures of the fungus or from cryogenic storage, are directly mixed into nutrient broth. DMSO solutions of the test compound (max. 10 mg/ml) is diluted with 0.025% Tween20 by a factor of 50 and 10 μl of this solution is pipetted into a microtiter plate (96-well format). The nutrient broth containing the fungal spores/mycelia fragments is then added to give an end concentration of the tested compound. The test plates are incubated in the dark at 24° C. and 96% relative humidity. The inhibition of fungal growth is determined photometrically after 2 to 7 days, depending on the pathosystem, and percent antifungal activity relative to the untreated check is calculated. Conidia of the fungus from cryogenic storage are directly mixed into nutrient broth (PDB potato dextrose broth). After placing a (DMSO) solution of test compound into a microtiter plate (96-well format), the nutrient broth containing the fungal spores is added. The test plates are incubated at 24° C. and the inhibition of growth is measured photometrically 3-4 days after application.

Phakopsora pachyrhizi = assay: Fungicidal activity against Phakopsora pachyrhizi, soybean, leaf disc preventative (Asian soybean rust); type: in vivo; conditions: foliar, 288 h, 12-14 days after application, compared to untreated control
Method: Leaf disks or leaf segments of various plant species are cut from plants grown in a greenhouse. The cut leaf disks or segments are placed in multiwell plates (24-well format) onto water agar. The leaf disks are sprayed with a test solution before (preventative) or after (curative) inoculation. Compounds to be tested are prepared as DMSO solutions (max. 10 mg/ml) which are diluted to the appropriate concentration with 0.025% Tween20 just before spraying. The inoculated leaf disks or segments are incubated under defined conditions (temperature, relative humidity, light, etc.) according to the respective test system. A single evaluation of disease level is carried out 3 to 14 days after inoculation, depending on the pathosystem. Percent disease control relative to the untreated check leaf disks or segments is then calculated. Soybean leaf disks are placed on water agar in multiwell plates (24-well format) and sprayed with the formulated test compound diluted in water. One day after application leaf discs are inoculated by spraying a spore suspension on the lower leaf surface. After an incubation period in a climate cabinet of 24-36 hours in darkness at 20° C. and 75% rh leaf disc are kept at 20° C. with 12 h light/day and 75% rh. The activity of a compound is assessed as percent disease control compared to untreated when an appropriate level of disease damage appears in untreated check leaf disks (12-14 days after application).

[2] = tested on: Puccinia recondita f. sp. tritici; assay: Fungicidal activity against Puccinia recondita f. sp. tritici, wheat, leaf disc curative (brown rust); type: in vivo; conditions: foliar, 144 h, wheat leaf segments, curative (applied 1 day after inoculation), 6-8 days after application, compared to untreated control
Method: (§1) Leaf disks or leaf segments of various plant species are cut from plants grown in a greenhouse. The cut leaf disks or segments are placed in multiwell plates (24-well format) onto water agar. The leaf disks are sprayed with a test solution before (preventative) or after (curative) inoculation. Compounds to be tested are prepared as DMSO solutions (max. 10 mg/ml) which are diluted to the appropriate concentration with 0.025% Tween20 just before spraying. The inoculated leaf disks or segments are incubated under defined conditions (temperature, relative humidity, light, etc.) according to the respective test system. A single evaluation of disease level is carried out 3 to 14 days after inoculation, depending on the pathosystem. Percent disease control relative to the untreated check leaf disks or segments is then calculated. Wheat leaf segments cv. Kanzler are placed on agar in multiwell plates (24-well format). The leaf segments are inoculated with a spore suspension of the fungus. Plates are stored in darkness at 19° C. and 75% rh. The formulated test compound diluted in water is applied 1 day after inoculation. The leaf segments are incubated at 19° C. and 75% rh under a light regime of 12 h light/12 h darkness in a climate cabinet and the activity of a compound is assessed as percent disease control compared to untreated when an appropriate level of disease damage appears in untreated check leaf segments (6-8 days after application).

[3] = tested on: Puccinia recondita f. sp. tritici; assay: Fungicidal activity against Puccinia recondita f. sp. tritici, wheat, leaf disc preventative (brown rust); type: in vivo; conditions: foliar, wheat leaf segments, preventative (inoculated 1 day after application), 7-9 days after application, compared to untreated control
Method: as §1, with “plates (24-well format) and sprayed with the formulated test compound diluted in water. The leaf” for “plates (24-well format). The leaf”, “of the fungus 1 day” for “of the fungus. Plates are stored in darkness at 19° C. and 75% rh. The formulated test compound diluted in water is applied 1 day”, “day after application. The inoculated” for “day after inoculation. The leaf”, “application. The inoculated leaf segments” for “inoculation. The leaf segments”, “leaf segments (7-9 days after” for “leaf segments (6-8 days after”

O=C1CCCN1Cc1ccc(-c2noc(C(F)(F)F)n2)cc1 [Compound A-1, 1-[[4-[5-(trifluoromethyl)-1,2,4-oxadiazol-3-yl]phenyl]methyl]pyrrolidin-2-one]
≥ 80%: inhibition of growth at 20 ppm [1] | pest or weed control at 200 ppm (Phakopsora pachyrhizi) | pest or weed control at 200 ppm [2] | pest or weed control at 200 ppm [3]

O=C1CCCCN1Cc1ccc(-c2noc(C(F)(F)F)n2)cc1 [Compound A-2, 1-[[4-[5-(trifluoromethyl)-1,2,4-oxadiazol-3-yl]phenyl]methyl]piperidin-2-one]
≥ 80%: pest or weed control at 200 ppm (Phakopsora pachyrhizi) | pest or weed control at 200 ppm [2] | pest or weed control at 200 ppm [3]

O=C1COCCN1Cc1ccc(-c2noc(C(F)(F)F)n2)cc1 [Compound A-3, 4-[[4-[5-(trifluoromethyl)-1,2,4-oxadiazol-3-yl]phenyl]methyl]morpholin-3-one]
≥ 80%: pest or weed control at 200 ppm (Phakopsora pachyrhizi) | pest or weed control at 200 ppm [2] | pest or weed control at 200 ppm [3]

CC1(C)CON(Cc2ccc(-c3noc(C(F)(F)F)n3)cc2)C1=O [Compound A-4, 4,4-dimethyl-2-[[4-[5-(trifluoromethyl)-1,2,4-oxadiazol-3-yl]phenyl]methyl]isoxazolidin-3-one]
≥ 80%: inhibition of growth at 20 ppm [1] | pest or weed control at 200 ppm (Phakopsora pachyrhizi) | pest or weed control at 200 ppm [2] | pest or weed control at 200 ppm [3]

CC1(C)CC(=O)N(Cc2ccc(-c3noc(C(F)(F)F)n3)cc2)O1 [Compound A-6, 5,5-dimethyl-2-[[4-[5-(trifluoromethyl)-1,2,4-oxadiazol-3-yl]phenyl]methyl]isoxazolidin-3-one]
≥ 80%: inhibition of growth at 20 ppm [1] | pest or weed control at 200 ppm (Phakopsora pachyrhizi) | pest or weed control at 200 ppm [2] | pest or weed control at 200 ppm [3]

CC1CC(=O)N(Cc2ccc(-c3noc(C(F)(F)F)n3)cc2)C1 (stereo not shown) [Compound A-8, 4-methyl-1-[[4-[5-(trifluoromethyl)-1,2,4-oxadiazol-3-yl]phenyl]methyl]pyrrolidin-2-one]
≥ 80%: inhibition of growth at 20 ppm [1] | pest or weed control at 200 ppm (Phakopsora pachyrhizi) | pest or weed control at 200 ppm [2] | pest or weed control at 200 ppm [3]

CC1CCCN(Cc2ccc(-c3noc(C(F)(F)F)n3)cc2)C1=O (stereo not shown) [Compound A-10, 3-methyl-1-[[4-[5-(trifluoromethyl)-1,2,4-oxadiazol-3-yl]phenyl]methyl]piperidin-2-one]
≥ 80%: inhibition of growth at 20 ppm [1] | pest or weed control at 200 ppm (Phakopsora pachyrhizi) | pest or weed control at 200 ppm [2] | pest or weed control at 200 ppm [3]

CC1(C)CC(=O)N(Cc2ccc(-c3noc(C(F)(F)F)n3)cc2)C(=O)C1 [Compound A-11, 4,4-dimethyl-1-[[4-[5-(trifluoromethyl)-1,2,4-oxadiazol-3-yl]phenyl]methyl]piperidine-2,6-dione]
≥ 80%: inhibition of growth at 20 ppm [1] | pest or weed control at 200 ppm (Phakopsora pachyrhizi) | pest or weed control at 200 ppm [2] | pest or weed control at 200 ppm [3]

O=C1CCCCN1Cc1ccc(-c2noc(C(F)(F)F)n2)cn1 [Compound A-12, 1-[[5-[5-(trifluoromethyl)-1,2,4-oxadiazol-3-yl]-2-pyridyl]methyl]piperidin-2-one]
≥ 80%: inhibition of growth at 20 ppm [1] | pest or weed control at 200 ppm (Phakopsora pachyrhizi) | pest or weed control at 200 ppm [2] | pest or weed control at 200 ppm [3]

CC1CCC(=O)N1Cc1ccc(-c2noc(C(F)(F)F)n2)cc1 (stereo not shown) [Compound A-13, 5-methyl-1-[[4-[5-(trifluoromethyl)-1,2,4-oxadiazol-3-yl]phenyl]methyl]pyrrolidin-2-one]
≥ 80%: inhibition of growth at 20 ppm [1] | pest or weed control at 200 ppm (Phakopsora pachyrhizi) | pest or weed control at 200 ppm [2] | pest or weed control at 200 ppm [3]

CC1CCCC(=O)N1Cc1ccc(-c2noc(C(F)(F)F)n2)cc1 (stereo not shown) [Compound A-14, 6-methyl-1-[[4-[5-(trifluoromethyl)-1,2,4-oxadiazol-3-yl]phenyl]methyl]piperidin-2-one]
≥ 80%: inhibition of growth at 20 ppm [1] | pest or weed control at 200 ppm (Phakopsora pachyrhizi) | pest or weed control at 200 ppm [2] | pest or weed control at 200 ppm [3]

O=C1C2CCC(CC2)N1Cc1ccc(-c2noc(C(F)(F)F)n2)cc1 [Compound A-15, 3-[[4-[5-(trifluoromethyl)-1,2,4-oxadiazol-3-yl]phenyl]methyl]-3-azabicyclo[2.2.2]octan-2-one]
≥ 80%: inhibition of growth at 20 ppm [1] | pest or weed control at 200 ppm (Phakopsora pachyrhizi) | pest or weed control at 200 ppm [2] | pest or weed control at 200 ppm [3]

CC1(C)CCCN(Cc2ccc(-c3noc(C(F)(F)F)n3)cc2)C1=O [Compound A-16, 3,3-dimethyl-1-[[4-[5-(trifluoromethyl)-1,2,4-oxadiazol-3-yl]phenyl]methyl]piperidin-2-one]
≥ 80%: inhibition of growth at 20 ppm [1] | pest or weed control at 200 ppm (Phakopsora pachyrhizi) | pest or weed control at 200 ppm [2] | pest or weed control at 200 ppm [3]

CC1CCN(Cc2ccc(-c3noc(C(F)(F)F)n3)cc2)C(=O)C1 (stereo not shown) [Compound A-17, 4-methyl-1-[[4-[5-(trifluoromethyl)-1,2,4-oxadiazol-3-yl]phenyl]methyl]piperidin-2-one]
≥ 80%: inhibition of growth at 20 ppm [1] | pest or weed control at 200 ppm (Phakopsora pachyrhizi) | pest or weed control at 200 ppm [2] | pest or weed control at 200 ppm [3]

CC1CCC(=O)N(Cc2ccc(-c3noc(C(F)(F)F)n3)cc2)C1 (stereo not shown) [Compound A-18, 5-methyl-1-[[4-[5-(trifluoromethyl)-1,2,4-oxadiazol-3-yl]phenyl]methyl]piperidin-2-one]
≥ 80%: inhibition of growth at 20 ppm [1] | pest or weed control at 200 ppm (Phakopsora pachyrhizi) | pest or weed control at 200 ppm [2] | pest or weed control at 200 ppm [3]

COC1CCCN(Cc2ccc(-c3noc(C(F)(F)F)n3)cc2)C1=O (stereo not shown) [Compound A-19, 3-methoxy-1-[[4-[5-(trifluoromethyl)-1,2,4-oxadiazol-3-yl]phenyl]methyl]piperidin-2-one]
≥ 80%: inhibition of growth at 20 ppm [1] | pest or weed control at 200 ppm (Phakopsora pachyrhizi) | pest or weed control at 200 ppm [2] | pest or weed control at 200 ppm [3]

CS(=O)(=O)N1CC(=O)N(Cc2ccc(-c3noc(C(F)(F)F)n3)cc2)C(=O)C1 [Compound A-59, 4-methylsulfonyl-1-[[4-[5-(trifluoromethyl)-1,2,4-oxadiazol-3-yl]phenyl]methyl]piperazine-2,6-dione]
≥ 80%: inhibition of growth at 20 ppm [1] | pest or weed control at 200 ppm (Phakopsora pachyrhizi) | pest or weed control at 200 ppm [3]

CN(C)S(=O)(=O)N1CC(=O)N(Cc2ccc(-c3noc(C(F)(F)F)n3)cc2)C(=O)C1 [Compound A-60, N,N-dimethyl-3,5-dioxo-4-[[4-[5-(trifluoromethyl)-1,2,4-oxadiazol-3-yl]phenyl]methyl]piperazine-1-sulfonamide]
≥ 80%: pest or weed control at 200 ppm (Phakopsora pachyrhizi) | pest or weed control at 200 ppm [3]
